The record followed here is publication PMC9607644, “Glycoconjugation of Quinoline Derivatives Using the C-6 Position in Sugars as a Strategy for Improving the Selectivity and Cytotoxicity of Functionalized Compounds” (Molecules, 2022).

Marks after values point to notes of the source that are not given here.

One data set has as its system NHDF-Neo cells. Kind of data set: MTT cytotoxicity assay, NHDF-Neo. It counts as cell-based. The conditions noted are these: Homo sapiens, incubation time 72 h. The procedure: An in vitro biological test package was performed for the obtained derivatives. All newly synthesized compounds were assessed for their cytotoxic activity against human cell lines with increased GLUT expression: the colon cancer cell line (HCT-116) and the breast cancer cell line (MCF-7), as well as on normal human dermal fibroblasts cells (NHDF-Neo), using the MTT assay (3-(4,5-dimethylthiazol-2-yl)-2,5-diphenyltetrazolium bromide). The MTT test is a colorimetric method for detecting proliferating cells. It is based on the ability of the enzyme mitochondrial dehydrogenase to convert yellow tetrazole salt (MTT) into purple formazan. The amount of the product formed in the reaction, determined spectrophotometrically, is proportional to the number of living cells. The antiproliferative activity was expressed as the concentration that caused 50% inhibition of the growth of the population of cells treated with the test compounds relative to the control cells (inhibitory concentration activity—IC50). Table 1 and Table 2 summarize the IC50 values calculated for all tested compounds.
(§1) The in vitro cytotoxicity of the test compounds was determined by the MTT (3-[4,5–dimethylthiazol-2-yl]-2,5-diphenyltetrazolium bromide) test (Sigma-Aldrich, Taufkirchen, Germany) according to the manufacturer’s protocol. At the beginning, for each cell line were determined the optimal seeding densities to ensure exponential growth throughout the experimental period. The confluent layer of cells were trypsinized, collected, and suspended in a growth medium. The cell suspension were then seeded into 96-well plates at a density of 1 × 10^4 or 2 × 10^3 (HCT-116) or 5 × 10^3 (MCF-7, NHDF-Neo) per well and incubated for 24 h under standard conditions (5% CO2, 37 °C). Then, the culture medium was replaced with solutions of different concentrations of test compounds in a fresh medium. Stock solutions of test compounds were prepared in DMSO and diluted to final concentrations with appropriate volumes of the growth medium directly before the experiment. Cells suspended in a medium supplemented with 0.5% DMSO (the amount of DMSO necessary to dissolve the highest dose of the respective sample) were used as a control of the experiment. […] The compound-treated cells were incubated for a further 24–72 h. After that, the medium was removed and the MTT solution (50 µL, 0.5 mg/mL in PBS) was added into each well and incubated for another 3 h under standard conditions (5% CO2, 37 °C). After this time, the MTT dye was carefully removed, and the acquired formazan crystals were dissolved by DMSO (Chempur, Piekary Śląskie, Poland). The proliferation was evaluated by measuring the formazan product’s absorbance at a wavelength of 570 nm with a microplate spectrophotometer (Epoch, BioTek, Winooski, VT, USA). All experiments were conducted in triplicate with four technical repeats for each tested concentration. Results were expressed as the percentage change in the viability of the test cells relative to the untreated control cells and calculated as the inhibitory concentration (IC50). The IC50 values were defined as the drug concentration that was necessary to reduce cell proliferation to 50% of the untreated control and this parameter was calculated using CalcuSyn software (version 2.0, Biosoft, Cambridge, UK). The results are expressed as the average value ± standard deviation (SD).

The next data set relates to MCF-7 cells. Kind of data set: MTT cytotoxicity assay, MCF-7. The conditions noted are these: for IC50: Homo sapiens, MCF7, incubation time 72 h; for IC50 / growth inhibitory activity in words, MCF-7: MTT; for Selectivity Index (SI) MCF-7: IC50 NHDF-Neo / IC50 MCF-7, 72 h incubation. Format: cell-based, human. As for the experimental part:
(§2) An in vitro biological test package was performed for the obtained derivatives. […] The MTT test is a colorimetric method for detecting proliferating cells. It is based on the ability of the enzyme mitochondrial dehydrogenase to convert yellow tetrazole salt (MTT) into purple formazan. The amount of the product formed in the reaction, determined spectrophotometrically, is proportional to the number of living cells.
as §1, with “The cell suspension were then seeded into 96-well plates at a density of 1 × 10^4 or 2 × 10^3 (HCT-116) or 5 × 10^3 (MCF-7, NHDF-Neo) per well and incubated for 24 h under standard conditions (5% CO2, 37 °C).” left out, “After that, the medium was removed and the MTT solution (50 µL, 0.5 mg/mL in PBS) was added into each well and incubated for another 3 h under standard conditions (5% CO2, 37 °C).” left out, “The IC50 values were defined as the drug concentration that was necessary to reduce cell proliferation to 50% of the untreated control and this parameter was calculated using CalcuSyn software (version 2.0, Biosoft, Cambridge, UK).” left out

The subject of another data set is HCT-116 cells. Kind of data set: MTT cytotoxicity assay, HCT-116. It counts as cell-based, human. The conditions noted are these: for IC50: Homo sapiens, HCT-116; for IC50 / growth inhibitory activity in words, HCT-116: MTT. As for the experimental part: as §2
as §1, with “The cell suspension were then seeded into 96-well plates at a density of 1 × 10^4 or 2 × 10^3 (HCT-116) or 5 × 10^3 (MCF-7, NHDF-Neo) per well and incubated for 24 h under standard conditions (5% CO2, 37 °C).” left out, “After that, the medium was removed and the MTT solution (50 µL, 0.5 mg/mL in PBS) was added into each well and incubated for another 3 h under standard conditions (5% CO2, 37 °C).” left out, “The IC50 values were defined as the drug concentration that was necessary to reduce cell proliferation to 50% of the untreated control and this parameter was calculated using CalcuSyn software (version 2.0, Biosoft, Cambridge, UK).” left out
Background: Tetrazolium assays rely on reduction of a dye to a coloured formazan, in cell work by metabolically active cells.

[1] abbreviates: IC50 NHDF-Neo / IC50 HCT-116, HCT-116 incubation time 24 h.
Setting [2] is: IC50 NHDF-Neo / IC50 HCT-116, 72 h incubation.

For orientation: IC50 means the concentration needed to halve the response being measured. A word on the melting point: it is the temperature, or range, at which the solid turns liquid.

For `OC1O[C@H](Cn2cc(COc3cccc4cccnc34)nn2)[C@H](O)[C@H](O)[C@H]1O` (some centres unmarked) [Compound B-2], the figures for the IC50 in the data set with NHDF-Neo cells, in the data set with MCF-7 cells and with HCT-116 cells (incubation time 24 h) were 271.6 ± 0.35 µM, 156 ± 7.4 µM and 293 ± 8 µM, respectively. Moreover, in the data set on MCF-7 cells, the “Selectivity Index (SI) MCF-7” value worked out at 1.74. Further, in the data set with HCT-116 cells (setting [1]), the “Selectivity Index (SI) HCT-116” value is listed as 0.93 ^b.

In the case of `CC(=O)O[C@@H]1[C@@H](OC(C)=O)[C@@H](O[C@H]2O[C@H](CN=[N+]=[N-])[C@@H](OC(C)=O)[C@H](OC(C)=O)[C@H]2OC(C)=O)O[C@H](CN=[N+]=[N-])[C@H]1OC(C)=O` [Compound 23, 2,3,4,2′,3′,4′-hexa-O-acetyl-6,6′-diazido-6,6′-dideoxy-D-trehalose], the melting point is 92 to 93 °C. In the data set on MCF-7 cells, this compound yielded an IC50 of more than 800 µM. This compound also came in with an IC50 with HCT-116 cells (incubation time 24 h) of more than 800 µM.

`CC(=O)O[C@@H]1O[C@H](C(=O)NCc2cn(CCCOc3cccc4cccnc34)nn2)[C@@H](OC(C)=O)[C@H](OC(C)=O)[C@H]1OC(C)=O` [Compound C-2]: the IC50 was 318.5 ± 3.09 µM in the data set on NHDF-Neo cells, 157 ± 7.86 µM in the data set with MCF-7 cells, 94.2 ± 1.48 µM in the data set on HCT-116 cells (incubation time 24 h) and 62.35 ± 0.32 µM with HCT-116 cells (incubation time 72 h). Also, in the data set on MCF-7 cells, the “Selectivity Index (SI) MCF-7” value was 2.03. In addition, the “growth inhibitory activity in words, MCF-7” value in the data set with MCF-7 cells is “did not show significant ability to inhibit cell growth”. Besides, the “Selectivity Index (SI) HCT-116” value in the data set with HCT-116 cells (setting [2]) was found to be 5.11. Further, the “growth inhibitory activity in words, HCT-116” value in the data set on HCT-116 cells is recorded as “did not show significant ability to inhibit cell growth”.

`CC(=O)O[C@@H]1[C@@H](OC(C)=O)[C@@H](O[C@H]2O[C@H](Cn3cc(COc4cccc5cccnc45)nn3)[C@@H](OC(C)=O)[C@H](OC(C)=O)[C@H]2OC(C)=O)O[C@H](Cn2cc(COc3cccc4cccnc34)nn2)[C@H]1OC(C)=O` [Compound D-1]: the IC50 in the data set with NHDF-Neo cells was 34.5 ± 0.39 µM; with MCF-7 cells it was 30.7 ± 0.99 µM; in the data set on HCT-116 cells (incubation time 24 h), 46.3 ± 3.12 µM; in the data set on HCT-116 cells (incubation time 72 h), 26.3 ± 0.72 µM. For the same compound, the “Selectivity Index (SI) MCF-7” value with MCF-7 cells came out at 1.12. Also, the “Selectivity Index (SI) HCT-116” value in the data set with HCT-116 cells (setting [2]) amounted to 1.31.

With `O=C(NCc1cn(CCCOc2cccc3cccnc23)nn1)[C@H]1OC(O)[C@H](O)[C@@H](O)[C@@H]1O` (some centres unmarked) [Compound C-3], the IC50 in the data set on NHDF-Neo cells is more than 800 µM; with MCF-7 cells, 706.6 ± 2.87 µM; in the data set with HCT-116 cells (incubation time 24 h), more than 800 µM; in the data set on HCT-116 cells (incubation time 72 h), 767 ± 2.39 µM. In addition, the “growth inhibitory activity in words, MCF-7” value in the data set on MCF-7 cells is “inactive”. In addition, the “growth inhibitory activity in words, HCT-116” value in the data set with HCT-116 cells was “inactive”.

Turning to `CC(=O)OC1O[C@H](Cn2cc(COc3cccc4cccnc34)nn2)[C@H](OC(C)=O)[C@H](OC(C)=O)[C@H]1OC(C)=O` (some centres unmarked) [Compound B-1], the IC50 in the data set with NHDF-Neo cells came to 81.42 ± 0.52 µM; with MCF-7 cells it was 36.67 ± 0.03 µM; with HCT-116 cells (incubation time 24 h), 75.1 ± 1.3 µM. Further, in the data set on MCF-7 cells, the “Selectivity Index (SI) MCF-7” value is 2.22. Moreover, the “Selectivity Index (SI) HCT-116” value in the data set with HCT-116 cells (setting [1]) is listed as 1.08 ^b.

Consider `CC(=O)O[C@@H]1O[C@H](C(=O)NCc2cn(CCOc3cccc4cccnc34)nn2)[C@@H](OC(C)=O)[C@H](OC(C)=O)[C@H]1OC(C)=O` [Compound C-1], for which the IC50 in the data set with NHDF-Neo cells is 215 ± 3.1 µM; in the data set on MCF-7 cells it was 224 ± 7.34 µM; in the data set with HCT-116 cells (incubation time 24 h), 173 ± 6.68 µM; in the data set on HCT-116 cells (incubation time 72 h), 81.5 ± 3.36 µM. Besides, in the data set with MCF-7 cells, the “Selectivity Index (SI) MCF-7” value was determined as 0.96. The “growth inhibitory activity in words, MCF-7” value in the data set on MCF-7 cells is listed as “did not show significant ability to inhibit cell growth”. Also, the “Selectivity Index (SI) HCT-116” value in the data set with HCT-116 cells (setting [2]) is given as 2.64. Besides, the “growth inhibitory activity in words, HCT-116” value in the data set on HCT-116 cells was “did not show significant ability to inhibit cell growth”.

On to `[N-]=[N+]=NC[C@H]1O[C@H](O[C@H]2O[C@H](CN=[N+]=[N-])[C@@H](O)[C@H](O)[C@H]2O)[C@H](O)[C@@H](O)[C@@H]1O` [Compound 20, 6,6′-diazido-6,6′-dideoxy-D-trehalose], for which the melting point turned out to be 118 °C. Moreover, in the data set with MCF-7 cells, the IC50 is more than 800 µM. The IC50 with HCT-116 cells (incubation time 24 h) was more than 800 µM.
